# Laboratory results: PubChem BioAssay AID2060363 (Molecular Pharmacology Branch, DTP, NCI, 2025)
# System: 156681-154-R-J1-PDC tumor spheroids, viability % test/control
# Test: Anticancer human tumor 156681-154-R-J1-PDC patient-derived melanoma cell line growth inhibition [TAK]
# Settings: spheroids with HUVEC and MSC; for IC50: curve of first compound; for viability, T/C: stronger effect = lower value
# Description: Combinatorial screen of targeted agents with TAK-243 and ipatasertib in multi-cell type tumor spheroids
# A high-throughput screen of multi-cell type tumor spheroids was designed to identify active combinations of targeted small molecules and TAK-243 or ipatasertib. Complex spheroids include a stromal component modeled by human endothelial cells (HUVEC) and fibroblasts modeled by human mesenchymal stem cells (MSCs). The concentration ranges selected for each drug and investigational agent were based upon clinically achievable concentrations if the clinical Cmax of the agent was known.
# Compounds. The drugs and investigational agents: TAK-243 (785004), ipatasertib (767898), everolimus (733504), selumetinib (741078), bortezomib (756655), trametinib (758246), ixazomib (758254), vemurafenib (761431), dabrafenib (764134), sapanisertib (764658), alpelisib (765974), and copanlisib (816437), were obtained from the National Cancer Institute (NCI) Developmental Therapeutics Program Chemical Repository. The FDA-approved anticancer drug set is available from the NCI Developmental Therapeutics Program. […] The stock solutions were prepared in dimethyl sulfoxide (DMSO, Sigma-Aldrich, St. Louis, MO, cat. D2650) at 800-fold the tested concentration and stored at -70 degrees C prior to their use. All drugs and investigational agents were tested over a range starting from a high concentration at or near the clinical Cmax and decreasing in half-log increments. If the clinical Cmax for an agent had not been determined, the highest concentration tested was 10 microM.
# NCI60 Cell Culture. NCI60 cell lines were obtained from the NCI Developmental Therapeutics Program Tumor Repository. For each lot of cells, the Repository performed Applied Biosystems AmpFLSTR Identifiler testing with PCR amplification to confirm consistency with the published Identifier STR profile for each cell line. Cells were kept in continuous culture for no more than 20 passages. The optimal seeding densities for each of the cell lines at each time point assessed were determined prior to performing the concentration response studies. Briefly, the NCI60 human tumor lines were grown as monolayers in RPMI 1640 medium supplemented with 10% FBS and 2 mmol/L L-glutamine.
# An additional 2 lines were from the NCI60 cell line panel including melanomas, MALME-3M and SK-MEL-2. Pooled donor human umbilical vein endothelial cells (HUVEC, Lonza, cat. CC-2519) and human mesenchymal stem cells (hMSC, Lonza, cat. PT-2501) were purchased from Lonza (Walkersville, MD).
# PDMR cell lines were grown in complete medium (DC medium): Dulbecco's modified Eagle's medium (DMEM)/F12 supplemented with 5% fetal bovine serum (FBS), 2 mM L-glutamine, 100 U/mL penicillin and 100 µg/ml streptomycin, 0.4 µg/ml hydrocortisone, 10 ng/ml epidermal growth factor (EGF) recombinant human protein, 24 µg/mL adenine, and 0.1 mg/mL primocin. During culture from frozen stock vials, PDMR cells were cultured in the same medium containing 10 µM Y-27632 (see Table 3). The PDCs were cultured in complete DMEM/F12 media without 10 microM Y-27632 dihydrochloride for at least two passages prior to the screen. The pooled donor HUVEC and hMSC were cultured in endothelial cell growth medium 2 (PromoCell, Heidelberg, Germany, cat. C-22011) and mesenchymal stem cell growth medium 2 (PromoCell, cat. C-28009), respectively. For all experiments, HUVEC and hMSC were used at passages </=5.
# For the pre-screen, cell seeding densities were determined from a titration spanning the range from 5,000 to 313 cells per well. The mct-spheroids including 60% malignant cells, 25% HUVEC and 15% MSC dispensed as a mixture into U-bottom Ultra-Low Attachment 384-well plates (Corning, NY)
# High-throughput Drug Combination Screening.
# Prior to their inoculation into 384-well plates, malignant cells, HUVEC, and hMSC were removed from T flasks using TrypLE express (Thermo Fisher Scientific, cat. 12605036) and harvested by centrifugation for 5 min at 233 x g. […]
# 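Note: spheroids exposed to compounds for 7 days before the endpoint.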
structure (smiles),measurement,setting,value
CC(=O)Nc1cccc(-n2c(=O)n(C3CC3)c(=O)c3c(Nc4ccc(I)cc4F)n(C)c(=O)c(C)c32)c1 + CC(C)NCC(C(=O)N1CCN(c2ncnc3c2C(C)CC3O)CC1)c1ccc(Cl)cc1,IC50,second compound 0.3 µM,3.28 nM
same,IC50,second compound 0.949 µM,3.04 nM
same,IC50,second compound 3 µM,1.39 nM
same,IC50,second compound 9.49 µM,< 0.0949 nM
same,IC50,second compound 30 µM,< 0.0949 nM
same,"viability, T/C","second compound 0.3 µM, first compound 94.9 pM",92%
same,"viability, T/C","second compound 0.3 µM, first compound 0.0003 µM",105%
same,"viability, T/C","second compound 0.3 µM, first compound 0.000949 µM",95.2%
same,"viability, T/C","second compound 0.3 µM, first compound 0.003 µM",53.3%
same,"viability, T/C","second compound 0.3 µM, first compound 0.00949 µM",11%
same,"viability, T/C","second compound 0.3 µM, first compound 0.03 µM",7.15%
same,"viability, T/C","second compound 0.949 µM, first compound 94.9 pM",88.9%
same,"viability, T/C","second compound 0.949 µM, first compound 0.0003 µM",89.2%
same,"viability, T/C","second compound 0.949 µM, first compound 0.000949 µM",84.2%
same,"viability, T/C","second compound 0.949 µM, first compound 0.003 µM",50.8%
same,"viability, T/C","second compound 0.949 µM, first compound 0.00949 µM",8.92%
same,"viability, T/C","second compound 0.949 µM, first compound 0.03 µM",6.03%
same,"viability, T/C","second compound 3 µM, first compound 94.9 pM",72.3%
same,"viability, T/C","second compound 3 µM, first compound 0.0003 µM",69.3%
same,"viability, T/C","second compound 3 µM, first compound 0.000949 µM",63.6%
same,"viability, T/C","second compound 3 µM, first compound 0.003 µM",22.9%
same,"viability, T/C","second compound 3 µM, first compound 0.00949 µM",7.24%
same,"viability, T/C","second compound 3 µM, first compound 0.03 µM",2.71%
same,"viability, T/C","second compound 9.49 µM, first compound 94.9 pM",43.4%
same,"viability, T/C","second compound 9.49 µM, first compound 0.0003 µM",43.6%
same,"viability, T/C","second compound 9.49 µM, first compound 0.000949 µM",31.1%
same,"viability, T/C","second compound 9.49 µM, first compound 0.003 µM",13%
same,"viability, T/C","second compound 9.49 µM, first compound 0.00949 µM",3.14%
same,"viability, T/C","second compound 9.49 µM, first compound 0.03 µM",0.73%
same,"viability, T/C","second compound 30 µM, first compound 94.9 pM",17.9%
same,"viability, T/C","second compound 30 µM, first compound 0.0003 µM",18.9%
same,"viability, T/C","second compound 30 µM, first compound 0.000949 µM",11.8%
same,"viability, T/C","second compound 30 µM, first compound 0.003 µM",4.9%
same,"viability, T/C","second compound 30 µM, first compound 0.00949 µM",1.63%
same,"viability, T/C","second compound 30 µM, first compound 0.03 µM",0.28%
CC(C)CC(NC(=O)C(Cc1ccccc1)NC(=O)c1cnccn1)B(O)O (stereo not given) + CC(C)NCC(C(=O)N1CCN(c2ncnc3c2C(C)CC3O)CC1)c1ccc(Cl)cc1,IC50,second compound 0.3 µM,2.09 nM
same,IC50,second compound 0.949 µM,1.76 nM
same,IC50,second compound 3 µM,1.44 nM
same,IC50,second compound 9.49 µM,< 0.0316 nM
same,IC50,second compound 30 µM,< 0.0316 nM
same,"viability, T/C","second compound 0.3 µM, first compound 31.6 pM",98.5%
same,"viability, T/C","second compound 0.3 µM, first compound 0.0001 µM",97%
same,"viability, T/C","second compound 0.3 µM, first compound 0.000316 µM",91.9%
same,"viability, T/C","second compound 0.3 µM, first compound 0.001 µM",97.3%
same,"viability, T/C","second compound 0.3 µM, first compound 0.00316 µM",23.9%
same,"viability, T/C","second compound 0.3 µM, first compound 0.01 µM",0.32%
same,"viability, T/C","second compound 0.949 µM, first compound 31.6 pM",85.2%
same,"viability, T/C","second compound 0.949 µM, first compound 0.0001 µM",87.4%
same,"viability, T/C","second compound 0.949 µM, first compound 0.000316 µM",91%
same,"viability, T/C","second compound 0.949 µM, first compound 0.001 µM",90.1%
same,"viability, T/C","second compound 0.949 µM, first compound 0.00316 µM",9.77%
same,"viability, T/C","second compound 0.949 µM, first compound 0.01 µM",0.19%
same,"viability, T/C","second compound 3 µM, first compound 31.6 pM",63.9%
same,"viability, T/C","second compound 3 µM, first compound 0.0001 µM",67.6%
same,"viability, T/C","second compound 3 µM, first compound 0.000316 µM",66%
same,"viability, T/C","second compound 3 µM, first compound 0.001 µM",66.7%
same,"viability, T/C","second compound 3 µM, first compound 0.00316 µM",15.7%
same,"viability, T/C","second compound 3 µM, first compound 0.01 µM",0.22%
same,"viability, T/C","second compound 9.49 µM, first compound 31.6 pM",40.6%
same,"viability, T/C","second compound 9.49 µM, first compound 0.0001 µM",39%
same,"viability, T/C","second compound 9.49 µM, first compound 0.000316 µM",37.8%
same,"viability, T/C","second compound 9.49 µM, first compound 0.001 µM",37.6%
same,"viability, T/C","second compound 9.49 µM, first compound 0.00316 µM",7.12%
same,"viability, T/C","second compound 9.49 µM, first compound 0.01 µM",0.21%
same,"viability, T/C","second compound 30 µM, first compound 31.6 pM",17.8%
same,"viability, T/C","second compound 30 µM, first compound 0.0001 µM",18.6%
same,"viability, T/C","second compound 30 µM, first compound 0.000316 µM",16.9%
same,"viability, T/C","second compound 30 µM, first compound 0.001 µM",17.3%
same,"viability, T/C","second compound 30 µM, first compound 0.00316 µM",1.86%
same,"viability, T/C","second compound 30 µM, first compound 0.01 µM",0.31%
